Experiments:
[1] = Microsome incubation, rat liver microsomes (metabolic stability); format: in vitro ADME; conditions: for MAB (rat): maximal achievable bioavailability = 1−E (hepatic extraction ratio), extrapolated from rat microsomal clearance; for microsomal CLint at 10 μM: pH 7.4, rat liver microsomes 1.0 mg prot/mL, test compound 10 μM, 37° C., NADPH regenerating system, calculated from in vitro half-life, read-out: Intrinsic clearance (rat)
Experimental: (§1) The compounds of formula I of the present invention are further characterized by high metabolic stability. This parameter is a prerequisite for good bioavailability, which is necessary to obtain medicaments with acceptable in-vivo activity. The metabolic stability has been tested by the following method:
(§2) Incubation mixtures consisted of liver microsomes (rat 1.0 mg prot/mL or human 2.0 mg prot/mL), test compound 10 μM, MgCl2 (3.3 mM), and an NADPH regenerating system consisting of glucose-6-phosphate dehydrogenase, NADPH and glucose-6-phosphate (equivalent to 1 mM NADPH) in a total volume of 1.0 mL of potassium phosphate buffer 100 mM pH 7.4. Reactions were initiated by addition of the NADPH regenerating system at 37° C. At the time of 1, 5, 9, 13, 17, 21, 25, and 29 min a 5 μL aliquot was directly analysed on a HPLC-MS/MS system consisting of a HP 1100 quaternary pump with degasser and a PE-Sciex API-2000 MS/MS spectrometer. The analytical column was a Waters Symmetry Shield RP8 (2.1*50 mm with a […] particle size). A polarity non linear gradient from phase A (MeOH/Ac. Form.1% 20/80) to phase B (MeOH) was applied for a total run time of 2 minutes at a flow rate of 0.25 mL/min. The PE-Sciex API-2000 MS/MS spectrometer was used for detection of the parent compound. In vivo metabolic clearance was predicted according to published procedures [Houston, Biochem. Pharmacol. 47:1469–1479 (1994)]. In brief, the intrinsic clearance (Clearance, see table below) is calculated from the measured in vitro half-life taking into account incubation volume and microsomal protein used for the in vitro incubation. The intrinsic clearance is expressed in terms of μl/min/mg microsomal protein. For in vivo extrapolations, the hepatic extraction ratio (E) was calculated. Here it is reported the % MAB value which is equal to 1−E. The MAB (maximal achievable bioavailability) values express the maximal bioavailability that one can achieve with the given clearance values.

rat mGlu 1a receptor = biological target: T1, rat mGlu 1a receptor (Rattus norvegicus, UniProt P23385); experiment: [Ca2+]i measurement (FLIPR) on mGlu 1a transfected EBNA cells (headed "Binding Assay"); format: cell-based; conditions: rat mGlu 1a transiently transfected EBNA cells, Fluo-3 AM, activation (agonist) curves
T1 construct: expressed in transfected cells; host or cells: EBNA cells (transient transfection)
Experimental: The compounds of the present invention are group I mGlu receptor agonists. The compounds show activities, as measured in the below binding assay, of 0.2 μM or less.
cDNA encoding rat mGlu 1a receptor obtained from Prof. S. Nakanishi (Kyoto, Japan) was transiently transfected into EBNA cells using a procedure described by Schlaeger et al, New Dev. New Appl. Anim. Cell Techn., Proc. ESACT Meet., 15, (1998), 105–112 and 117–120. [Ca^2+]i measurements were performed on mGlu 1a transfected EBNA cells after incubation of the cells with Fluo-3 AM (0.5 μM final concentration) for 1 hour at 37° C. followed by 4 washes with assay buffer (DMEM supplemented with Hank's salt and 20 mM HEPES. [Ca^2+]i measurements were done using a fluorometric imaging plate reader (FLIPR, Molecular Devices Corporation, La Jolla, Calif., USA). When compounds were evaluated as antagonists they were tested against 10 μM glutamate as agonist.
The activation (agonists) curves were fitted with a four parameter logistic equation giving EC50, and Hill coefficient using the iterative non linear curve fitting software Origin (Microcal Software Inc., Northampton, Mass., USA).
In the table below are shown specific EC50 values of compounds of formula I: […]

[2] = Microsome incubation, human liver microsomes (metabolic stability); format: in vitro ADME; conditions: for MAB (human): maximal achievable bioavailability = 1−E (hepatic extraction ratio), extrapolated from human microsomal clearance; for microsomal CLint at 10 μM: pH 7.4, human liver microsomes 2.0 mg prot/mL, test compound 10 μM, 37° C., NADPH regenerating system, calculated from in vitro half-life, read-out: Intrinsic clearance (human)
Experimental: as §1, §2

T1 sequence (P23385 19-1199): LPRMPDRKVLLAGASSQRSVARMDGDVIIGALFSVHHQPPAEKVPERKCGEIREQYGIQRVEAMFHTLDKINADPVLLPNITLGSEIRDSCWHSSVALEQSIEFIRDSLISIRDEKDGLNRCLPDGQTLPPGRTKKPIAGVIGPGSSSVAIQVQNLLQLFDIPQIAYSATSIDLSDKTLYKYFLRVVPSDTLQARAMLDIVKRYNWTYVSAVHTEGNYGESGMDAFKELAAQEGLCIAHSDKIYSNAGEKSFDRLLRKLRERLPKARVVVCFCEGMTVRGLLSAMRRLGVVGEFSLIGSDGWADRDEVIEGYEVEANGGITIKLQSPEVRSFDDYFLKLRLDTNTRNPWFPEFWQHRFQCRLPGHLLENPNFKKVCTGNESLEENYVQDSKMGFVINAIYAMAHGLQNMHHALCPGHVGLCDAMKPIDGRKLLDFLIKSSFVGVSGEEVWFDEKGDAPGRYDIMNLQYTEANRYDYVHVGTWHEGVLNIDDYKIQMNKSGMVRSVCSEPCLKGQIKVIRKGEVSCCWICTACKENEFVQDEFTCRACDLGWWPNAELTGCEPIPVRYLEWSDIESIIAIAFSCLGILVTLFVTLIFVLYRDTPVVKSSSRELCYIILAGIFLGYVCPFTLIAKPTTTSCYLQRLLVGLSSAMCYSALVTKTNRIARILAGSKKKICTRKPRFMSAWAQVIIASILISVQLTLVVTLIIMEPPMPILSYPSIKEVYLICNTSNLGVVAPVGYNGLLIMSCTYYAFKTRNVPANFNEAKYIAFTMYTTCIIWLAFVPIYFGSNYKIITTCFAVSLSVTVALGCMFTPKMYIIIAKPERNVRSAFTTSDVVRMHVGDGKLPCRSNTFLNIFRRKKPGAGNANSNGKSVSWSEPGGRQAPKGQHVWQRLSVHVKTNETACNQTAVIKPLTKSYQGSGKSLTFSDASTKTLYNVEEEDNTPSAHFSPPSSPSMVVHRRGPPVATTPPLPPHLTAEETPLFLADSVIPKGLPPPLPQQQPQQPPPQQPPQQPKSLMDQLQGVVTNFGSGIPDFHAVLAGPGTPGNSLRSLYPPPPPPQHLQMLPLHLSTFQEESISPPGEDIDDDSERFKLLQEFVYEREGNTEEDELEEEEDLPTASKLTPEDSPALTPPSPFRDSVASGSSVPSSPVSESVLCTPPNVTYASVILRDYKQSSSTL

Row | MAB (rat) [1] [%] | microsomal CLint at 10 μM [1] [µL/min/mg] | EC50 (rat mGlu 1a receptor) [nM] | melting point [°C] | MAB (human) [2] [%] | microsomal CLint at 10 μM [2] [µL/min/mg] | Structure (SMILES)
1 | 32 | 61.4 | 55 | 241 | 61 | 9.9 | O=C(Nc1nc(C(F)(F)F)co1)C1c2ccccc2Oc2ccc(F)cc21 (racemic) [Example 3, (RS)-2-Fluoro-9H-xanthene-9-carboxylic Acid (4-trifluoromethyl-oxazol-2-yl)-amide]
2 | 43 | 40.2 | 20 | 217 | 45 | 18.8 | O=C(Nc1ncc(C(F)(F)F)o1)C1c2ccccc2Oc2ccc(F)cc21 (racemic) [Example 4, (RS)-2-Fluoro-9H-xanthene-9-carboxylic Acid (5-trifluoromethyl-oxazol-2-yl)-amide]
3 | 46 | 34.3 | 40 | 221 | 78 | 4.3 | O=C(Nc1nc(C(F)(F)F)co1)C1c2ccccc2Oc2cc(F)ccc21 (racemic) [Example 5, (RS)-3-Fluoro-9H-xanthene-9-carboxylic Acid (4-trifluoromethyl-oxazol-2-yl)-amide]
4 | 52 | 27.8 | – | 250 | 63 | 9.2 | O=C(Nc1ncc(C(F)(F)F)o1)C1c2ccccc2Oc2cc(F)ccc21 (racemic) [Example 6, (RS)-3-Fluoro-9H-xanthene-9-carboxylic Acid (5-trifluoromethyl-oxazol-2-yl)-amide]
5 | 48 | 32.8 | 16 | 233 | 67 | 7.9 | O=C(Nc1nc(C(F)(F)F)co1)C1c2ccccc2Oc2c(F)cccc21 (racemic) [Example 7, (RS)-4-Fluoro-9H-xanthene-9-carboxylic Acid (4-trifluoromethyl-oxazol-2-yl)-amide]
6 | 49 | 31.8 | 21 | 228 | 45 | 19.2 | O=C(Nc1ncc(C(F)(F)F)o1)C1c2ccccc2Oc2c(F)cccc21 (racemic) [Example 8, (RS)-4-Fluoro-9H-xanthene-9-carboxylic Acid (5-trifluoromethyl-oxazol-2-yl)-amide]
7 | – | – | 15 | 235 | – | – | O=C(Nc1nc(C(F)(F)F)co1)C1c2ccccc2Oc2ccc(Cl)cc21 (racemic) [Example 13, (RS)-2-Chloro-9H-xanthene-9-carboxylic Acid (4-trifluoromethyl-oxazol-2-yl)-amide]
8 | – | – | 93 | 212 | – | – | O=C(Nc1nc(C(F)(F)F)co1)C1c2ccccc2Oc2c(Cl)cccc21 (racemic) [Example 14, (RS)-4-Chloro-9H-xanthene-9-carboxylic Acid (4-trifluoromethyl-oxazol-2-yl)-amide]
9 | 25 | 108 | 56 | – | 68 | 8 | O=C(Nc1nc(C(F)(F)F)co1)C1c2ccccc2Oc2ccccc21 [Example 1, 9H-Xanthene-9-carboxylic acid (4-trifluoromethyl-oxazol-2-yl)-amide]
10 | 37 | 50 | 38 | 218 | 68 | 14 | O=C(Nc1ncc(C(F)(F)F)o1)C1c2ccccc2Oc2ccccc21 [Example 2, 9H-Xanthene-9-carboxylic Acid (5-trifluoromethyl-oxazol-2-yl)-amide]
11 | 77 | 8.9 | 44 | 259 | 85 | 2.7 | O=C(Nc1nc(C(F)(F)F)co1)C1c2cc(F)ccc2Oc2ccc(F)cc21 [Example 9, 2,7-Difluoro-9H-xanthene-9-carboxylic Acid (4-trifluoromethyl-oxazol-2-yl)-amide]
12 | 54 | 26.1 | 124 | 232 | 73 | 5.6 | O=C(Nc1ncc(C(F)(F)F)o1)C1c2cc(F)ccc2Oc2ccc(F)cc21 [Example 10, 2,7-Difluoro-9H-xanthene-9-carboxylic Acid (5-trifluoromethyl-oxazol-2-yl)-amide]
13 | 63 | 17.6 | 3 | 265 | 59 | 11.1 | O=C(Nc1nc(C(F)(F)F)co1)C1c2ccc(F)cc2Oc2cc(F)ccc21 [Example 11, 3,6-Difluoro-9H-xanthene-9-carboxylic Acid (4-trifluoromethyl-oxazol-2-yl)-amide]
14 | 72 | 11.6 | 25 | 249 | 63 | 9.1 | O=C(Nc1ncc(C(F)(F)F)o1)C1c2ccc(F)cc2Oc2cc(F)ccc21 [Example 12, 3,6-Difluoro-9H-xanthene-9-carboxylic Acid (5-trifluoromethyl-oxazol-2-yl)-amide]

Source: US7119113B2, “Oxazoles as mGluR1 enhancers” (Hoffmann-La Roche Inc., priority 2002, dated 2006)
